Results on 26 compounds are retold here after US6392045B1, “9-azobicyclo[3.3.1] non-2-ene derivatives as cholinergic ligands at nicotinic ACH receptors” (NeuroSearch A/S, priority 1997, dated 2002).

The target in series [1] is nAChRs comprised of α4 and β2 subunits (Rattus norvegicus, UniProt P09483+P12390). Briefly: In vitro inhibition of 3H-cytisine binding. The protocol:
In Vitro Inhibition of ^3H-cytisine Binding
The predominant subtype with high affinity for nicotine is comprised of α4 and β2 subunits. nAChRs of the latter type can selectively be labelled by the nicotine agonist ^3H-cytisine.
Tissue Preparation: Preparations are performed at 0-4° C. unless otherwise indicated. […] The homogenate is centrifuged at 27,000×g for 10 min. The supernatant is discarded and the pellet is resuspended in fresh buffer and centrifuged a second time. The final pellet is resuspended in fresh buffer (35 ml per g of original tissue) and used for binding assays.
Assay: Aliquots of 500 μl homogenate are added to 25 μl of test solution and 25 μl of ^3H-cytisine (1 nM, final concentration), mixed and incubated for 90 min at 2° C. Non-specific binding is determined using (−)-nicotine (100 μM, final concentration). After incubation the samples are added 5 ml of ice-cold buffer and poured directly onto Whatman GF/C glass fibre filters under suction and immediately washed with 2×5 ml ice-cold buffer. The amount of radioactivity on the filters is determined by conventional liquid scintillation counting. Specific binding is total binding minus non-specific binding.

Series [2] has as its target nAChR formed by the α7 subunit isoform (Rattus norvegicus, UniProt Q05941). Briefly: biochemical. It is filed as binding.
The target of series [3] is T1, α4β2 subtype of nicotinic receptors (neuronal nicotinic receptors) (Rattus norvegicus, UniProt P09483+P12390).
T1 construct: The forebrain (÷cerebellum) from a male Wistar rat (150-250 g) is homogenized; from tissue; host or cells: rat forebrain (without cerebellum) homogenate (male Wistar)
Briefly: In vitro inhibition of 3H-epibatidin binding. On the procedure: In Vitro Inhibition of ^3H-epibatidin Binding
The high affinity binding site for ^3H-epibatidin is most certainly binding to the α4β2 subtype of nicotinic receptors. The identity of the low affinity site is still unknown; does it represent a second nicotinic receptor or a second site in the same receptor.
Tissue preparation: Preparations are performed at 0-4° C. unless otherwise indicated. The forebrain (÷cerebellum) from a male Wistar rat (150-250 g) is homogenized for 10-20 sec in 20 ml Tris, HCl (50 mM, pH 7.4) using an Ultra-Turrax homogenizer. The tissue suspension is centrifuged at 27,000×g for 10 min. The supernatant is discarded and the pellet is washed three times by centrifugation at 27,000×g for 10 min in 20 ml fresh buffer, and the final pellet is resuspended in fresh buffer (400 ml per g of original tissue) and used for binding assays.
Assay: Aliquots of 2.0 ml homogenate are added to 0.100 ml of test solution and 0.100 ml of ^3H-epibatidin (0.3 nM, final concentration), mixed and incubated for 60 min at room temperature. Non-specific binding is determined using (−)-nicotine (30 μM, final concentration). After incubation the samples are poured directly onto Whatman GF/C glass fibre filters (presoaked in 0.1% PEI for at least 20 min) under suction and immediately washed with 2×5 ml ice-cold buffer. The amount of radioactivity on the filters is determined by conventional liquid scintillation counting. Specific binding is total binding minus non-specific binding.

The mark [4] stands for this setting: read-out: 3H-α-bungarotoxin IC50.
Setting [5] is: rat cerebral cortex homogenate, 1 nM 3H-cytisine, 90 min at 2° C., read-out: 3H-cytisine IC50.

Structures can show the parent of a compound that is named as a salt. Where two headings read alike, the source gives them in different places.

As a reminder, the melting point is the temperature, or range, at which the solid turns liquid. The IC50 is the concentration that gives 50% inhibition.

Sequence of nAChR formed by the α7 subunit isoform (Q05941 23-502): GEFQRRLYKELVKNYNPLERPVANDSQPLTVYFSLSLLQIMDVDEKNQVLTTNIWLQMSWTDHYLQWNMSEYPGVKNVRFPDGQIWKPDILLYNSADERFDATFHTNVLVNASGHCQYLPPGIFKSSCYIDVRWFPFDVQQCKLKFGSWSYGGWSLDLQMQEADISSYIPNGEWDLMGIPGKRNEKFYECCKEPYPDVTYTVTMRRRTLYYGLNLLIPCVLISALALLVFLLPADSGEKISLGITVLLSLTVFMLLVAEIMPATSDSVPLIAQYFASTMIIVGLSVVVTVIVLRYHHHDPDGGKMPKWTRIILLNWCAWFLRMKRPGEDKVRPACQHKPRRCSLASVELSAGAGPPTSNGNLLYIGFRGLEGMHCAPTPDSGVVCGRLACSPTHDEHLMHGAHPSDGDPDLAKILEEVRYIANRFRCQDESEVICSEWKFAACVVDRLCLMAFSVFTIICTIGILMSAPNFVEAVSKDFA
Sequence of nAChRs comprised of α4 and β2 subunits (P09483 31-630): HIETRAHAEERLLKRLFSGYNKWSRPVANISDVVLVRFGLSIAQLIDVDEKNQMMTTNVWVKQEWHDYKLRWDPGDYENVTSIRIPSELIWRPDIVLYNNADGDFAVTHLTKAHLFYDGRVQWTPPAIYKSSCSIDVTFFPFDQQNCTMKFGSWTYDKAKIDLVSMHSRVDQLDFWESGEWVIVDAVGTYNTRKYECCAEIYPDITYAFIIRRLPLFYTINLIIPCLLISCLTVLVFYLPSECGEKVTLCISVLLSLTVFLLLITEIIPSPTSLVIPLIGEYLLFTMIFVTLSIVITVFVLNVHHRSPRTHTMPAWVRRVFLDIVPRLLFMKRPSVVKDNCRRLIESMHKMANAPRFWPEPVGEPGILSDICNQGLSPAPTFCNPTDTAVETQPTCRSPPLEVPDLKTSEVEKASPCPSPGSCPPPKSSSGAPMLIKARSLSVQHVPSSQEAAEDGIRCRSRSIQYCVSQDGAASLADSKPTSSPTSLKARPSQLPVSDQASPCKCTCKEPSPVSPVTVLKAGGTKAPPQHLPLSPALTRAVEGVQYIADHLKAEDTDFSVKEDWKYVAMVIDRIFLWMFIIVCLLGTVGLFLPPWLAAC
Sequence of nAChRs comprised of α4 and β2 subunits (P12390 25-500): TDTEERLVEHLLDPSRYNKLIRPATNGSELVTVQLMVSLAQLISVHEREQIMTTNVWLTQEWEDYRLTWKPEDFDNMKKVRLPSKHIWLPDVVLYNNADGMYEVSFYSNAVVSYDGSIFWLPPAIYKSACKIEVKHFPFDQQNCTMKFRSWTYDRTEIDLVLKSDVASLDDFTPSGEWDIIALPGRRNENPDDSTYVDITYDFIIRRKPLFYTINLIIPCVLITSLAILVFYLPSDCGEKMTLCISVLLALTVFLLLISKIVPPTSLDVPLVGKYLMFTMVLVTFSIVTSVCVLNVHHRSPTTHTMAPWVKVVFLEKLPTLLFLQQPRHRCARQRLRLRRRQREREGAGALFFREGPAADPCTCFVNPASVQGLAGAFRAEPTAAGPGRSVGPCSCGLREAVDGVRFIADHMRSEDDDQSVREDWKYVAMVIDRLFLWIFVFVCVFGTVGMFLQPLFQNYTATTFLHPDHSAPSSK
T1 sequence (P09483 31-630): as the sequence (P09483 31-630) above
T1 sequence (P12390 25-500): as the sequence (P12390 25-500) above

In turn, `C1=C(c2cccnc2)CC2CCCC1N2Cc1ccccc1.O=C(O)/C=C/C(=O)O` (racemic) displayed a melting point of 186 to 187 °C.

With `CN1C2C=C(c3ccc4c(c3)OCO4)CC1CCC2.O=C(O)/C=C/C(=O)O` (racemic), the melting point was in the range of 159 to 163 °C.

In the case of `CN1C2C=C(c3cccc4ncccc34)CC1CCC2` (racemic), the melting point was in the range of 142 to 144 °C.

`CN1C2C=C(c3nc4ccccc4s3)CC1CCC2.O=C(O)/C=C/C(=O)O` (racemic) displayed a melting point of 176 to 177 °C.

The compound `COc1cncc(C2=CC3CCCC(C2)N3C)c1` (racemic) (as salt: fumaric acid salt) [Compound 2a, (±)-3-[3-(5-Methoxy)-pyridyl]-9-methyl-9-azabicyclo[3.3.1]non-2-ene Fumaric Acid Salt] returned a melting point of 125 to 126.5 °C.

Compound `CN1C2C=C(c3cncc(-c4ccccc4)c3)CC1CCC2` (racemic) (as salt: fumaric acid salt) [Compound 3a, (±)-9-Methyl-3-[3-(5-phenyl)-pyridyl]-9-azabicyclo[3.3.1]non-2-ene Fumaric Acid Salt] returned a melting point of 147.5 to 149.5 °C.

As for `COc1ccc(C2=CC3CCCC(C2)N3C)cn1` (racemic) (as salt: fumaric acid salt) [Compound 5b, (±)-3-[3-(6-Methoxy)-pyridyl)]-9-methyl-9-azabicyclo[3.3.1]non-2-ene Fumaric Acid Salt], the melting point was in the range of 116 to 124 °C.

`C1=C(c2cccnc2)CC2CCCC1N2` (racemic) (as salt: fumaric acid salt) [Compound 11c, (±)-9-H-3-(3-Pyridyl)-9-azabicyclo[3.3.1]oct-2-ene Fumaric Acid Salt] returned a melting point of 188.5 to 190 °C.

In the case of `CN1C2C=C(c3ccc4ccccc4c3)CC1CCC2` (racemic) (as salt: oxalic acid salt) [Compound 8c, (±)-3-(2-Naphtyl)-9-methyl-9-azabicyclo[3.3.1]non-2-ene Oxalic Acid Salt], the melting point fell in the range of 87.9 to 92.2 °C.

Consider `CN1C2C=C(c3cccnc3)CC1CCC2.O=C(O)/C=C/C(=O)O` (racemic) [Compound 1a, (±)-9-Methyl-3-(3-pyridyl)-9-azabicyclo[3.3.1]non-2-ene Fumaric Acid Salt], for which the melting point is 164.5 to 166.5 °C. Also, the concentration for half-maximal inhibition (IC50) in series [1] is 23 nM. Moreover, the IC50 in series [2] (setting [4]) was determined as 500 nM. Moreover, the concentration for half-maximal inhibition (IC50) in series [3] turned out to be 84 nM.

The compound `CN1C2C=C(c3cncnc3)CC1CCC2.O=C(O)/C=C/C(=O)O` (racemic) [Compound 1b, (±)-9-Methyl-3-(5-pyrimidyl)-9-azabicyclo[3.3.1]non-2-ene Fumaric Acid Salt] gave a melting point of 198 to 202 °C. Also, in series [1], the IC50 turned out to be 78 nM. Besides, in series [2] (setting [4]), the half-maximal inhibitory concentration (IC50) was found to be 1600 nM. Also, the IC50 in series [3] was found to be 52 nM.

`CN1C2C=C(c3cccc(N)c3)CC1CCC2.O=C(O)/C=C/C(=O)O` (racemic) [Compound 1c, (±)-3-(3-Aminophenyl)-9-methyl-9-azabicyclo[3.3.1]non-2-ene Fumaric Acid Salt]: the melting point is 174 to 180 °C. Moreover, in series [1] (setting [5]), the IC50 worked out at 40 nM. In addition, the IC50 in series [2] was determined as 220 nM. Further, in series [3] (rat forebrain homogenate, 0.3 nM 3H-epibatidin, 60 min at room temperature, read-out: 3H-epibatidin IC50), the IC50 was found to be 180 nM.

As for `CN1C2C=C(c3cccn3C)CC1CCC2` (racemic) [Compound 1d, (±)-3-[2-(1-Methyl-pyrrolyl)]-9-methyl-9-azabicyclo[3.3.1]non-2-ene], the IC50 in series [1] turned out to be 1800 nM; in series [2] (setting [4]), 1900 nM.

Turning to `COc1cncc(C2=CC3CCCC(C2)N3C)c1` (racemic) [Compound 2a, (±)-3-[3-(5-Methoxy)-pyridyl]-9-methyl-9-azabicyclo[3.3.1]non-2-ene Fumaric Acid Salt], the IC50 in series [1] amounted to 17 nM; in series [2] (setting [4]), 2000 nM; in series [3] it was 76 nM.

As for `CN1C2C=C(c3cncc(-c4cccnc4)c3)CC1CCC2.O=C(O)/C=C/C(=O)O` (racemic) [Compound 2b, (±)-9-Methyl-3-[5-(3-pyridyl)-3-pyridyl]-9-azabicyclo[3.3.1]non-2-ene Fumaric Acid Salt], the melting point fell in the range of 206 to 208 °C. Moreover, the IC50 in series [1] was found to be 13 nM. Further, the half-inhibitory concentration (IC50) in series [2] (setting [4]) came to 17000 nM. Further, in series [3], the IC50 was found to be 240 nM.

For `CC(=O)Nc1cccc(C2=CC3CCCC(C2)N3C)c1.CC(=O)O` (racemic) [Compound 2c, (±)-3-(3-Acetamidophenyl)-9-methyl-9-azabicyclo[3.3.1]non-2-ene Acetic Acid Salt], the melting point is 59.9 to 63.4 °C. Besides, the IC50 in series [1] was determined as 85000 nM. For the same compound, the half-inhibitory concentration (IC50) in series [2] (setting [4]) is 1700 nM. The half-maximal inhibitory concentration (IC50) in series [3] worked out at 290000 nM.

Take `CC(=O)C1=CC2CCCC(C1)N2C.O=C(O)/C=C/C(=O)O` (racemic) [Compound 2d, (±)-3-Acetyl-9-methyl-9-azabicyclo[3.3.1]non-2-ene Fumaric Acid Salt]: the melting point lay within 149 to 151 °C. The IC50 in series [1] was 590 nM. Moreover, the half-maximal inhibitory concentration (IC50) in series [2] (setting [4]) amounted to 4200 nM. The same compound yielded an IC50 in series [3] of 1100 nM.

Regarding `CN1C2C=C(c3cncc(-c4ccccc4)c3)CC1CCC2` (racemic) [Compound 3a, (±)-9-Methyl-3-[3-(5-phenyl)-pyridyl]-9-azabicyclo[3.3.1]non-2-ene Fumaric Acid Salt], the figures for the half-maximal inhibitory concentration (IC50) in series [1], in series [2] (setting [4]) and in series [3] were 25 nM, 4100 nM and 150 nM, respectively.

As for `CN1C2C=C(c3cccc(N4CCCC4)c3)CC1CCC2` (racemic) [Compound 3c, (±)-3-[3-(1-Pyrrolidinyl)-phenyl]-9-methyl-9-azabicyclo[3.3.1]non-2-ene], the IC50 is > 10000 nM in series [1] (setting [5]), 18000 nM in series [2] and > 10000 nM in series [3].

On to `COc1cncc(C2=CC3CCCC(C2)N3)c1` (racemic) [Compound 3d, (±)-9-H-3-(3-(5-methoxy)-pyridyl)-9-azabicyclo[3.3.1]non-2-ene], for which the IC50 was 3 nM in series [1] (setting [5]), 17 nM in series [2] (setting [4]) and 18 nM in series [3].

As to `CN1C2C=C(c3cc4ccccc4o3)CC1CCC2` (racemic) [Compound 4a, (±)-3-(2-Benzofuryl)-9-methyl-9-azabicyclo[3.1]non-2-ene Fumaric Acid Salt], the values for the IC50 in series [1] (setting [5]), in series [2] and in series [3] were > 300000 nM, 190 nM and > 300000 nM, respectively.

In the case of `COc1ccc(C2=CC3CCCC(C2)N3C)cn1` (racemic) [Compound 5b, (±)-3-[3-(6-Methoxy)-pyridyl)]-9-methyl-9-azabicyclo[3.3.1]non-2-ene Fumaric Acid Salt], the IC50 was 2000 nM in series [1], 2300 nM in series [2] (setting [4]) and 17000 nM in series [3].

With `CN1C2C=C(c3cc4ccccc4s3)CC1CCC2` (racemic) [Compound 7a, (±)-3-(2-Benzothienyl)-9-methyl-9-azabicyclo[3.3.1]non-2-ene], the IC50 was 280000 nM in series [1] (setting [5]), 160 nM in series [2] and 280000 nM in series [3].

Compound `CN1C2C=C(c3cc4ccccc4o3)CC1CCC2.O=C(O)/C=C/C(=O)O` (racemic) [Compound 7c, (±)-3-(2-Benzofuryl)-9-methyl-9-azabicyclo[3.3.1]non-2-ene Fumaric Acid Salt] returned a melting point of 184 to 186 °C. The half-inhibitory concentration (IC50) in series [1] (setting [5]) is > 300000 nM. Besides, the IC50 in series [2] was 190 nM.

Regarding `CN1C2C=C(c3ccc4ccccc4c3)CC1CCC2` (racemic) [Compound 8c, (±)-3-(2-Naphtyl)-9-methyl-9-azabicyclo[3.3.1]non-2-ene Oxalic Acid Salt], the half-inhibitory concentration (IC50) in series [1] (setting [5]) was > 300000 nM; in series [2] it was 370 nM; in series [3], > 300000 nM.

For `C1=C(c2cccnc2)CC2CCCC1N2` (racemic) [Compound 11c, (±)-9-H-3-(3-Pyridyl)-9-azabicyclo[3.3.1]oct-2-ene Fumaric Acid Salt], the half-maximal inhibitory concentration (IC50) came out at 4.5 nM in series [1] (setting [5]), 170 nM in series [2] (setting [4]) and 46 nM in series [3].
